Measurements as given in the supplement of paper PMC5770543.
± gives the standard deviation.

Tests used:
[1] = tested on: Plasmodium falciparum 3D7; assay: EC50 growth inhibition (60 h, SYBR Green); conditions: stage: ring-stage start
[2] = tested on: Toxoplasma gondii RH tachyzoites; assay: % growth inhibition vs DMSO (48 h luciferase); higher = more inhibition; conditions: 10 µM;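 further: tested in triplicate wells of 96-well plates on confluent HFF monolayers, with 1% DMSO wells as negative control in four replicates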
[3] = tested on: Plasmodium falciparum 3D7; assay: % inhibition of schizont-to-ring transition vs DMSO; higher = more inhibition
Procedure, shortened: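 Schizont-to-ring transition inhibition is the formation of new rings relative to vehicle controls. Tightly synchronised P. falciparum schizonts at about 40–42 hours post-invasion (1% parasitemia, 2.5% hematocrit, AlbuMAX-supplemented RPMI) were treated with compound at 1, 3 or 10 µM, alongside vehicle and positive controls. After glutaraldehyde fixation, Triton permeabilisation and Hoechst 33342 staining, at least 100,000 events were counted by flow cytometry, and values are the mean of three experiments.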

SMILES | EC50 growth inhibition [1] [nM] | % growth inhibition [2] [%] | % inhibition of schizont-to-ring transition ([3]; 1 µM) [%] | % inhibition of schizont-to-ring transition ([3]; 3 µM) [%] | % inhibition of schizont-to-ring transition ([3]; 10 µM) [%]
CN(C)CCNc1cc(-c2ccccc2)nc2ccccc12 | 936 | 66.7 ± 1.5 | 6.36 | 21.7 | 63.2
CC(C)(C)CC(C)(C)NCC(O)COc1ccc2c(c1)CCC2 (stereo not given) | 4380 | 61.6 ± 1.5 | 17.3 | 26.1 | 47.6
O=C(Nc1ccccc1O)c1ccc(-c2ccc(Cl)cc2Cl)o1 | 1670 | 23.8 ± 5.9 | 28.6 | 26.9 | 48
Cc1[nH]c(-c2ccc(F)cc2)cc1C(=O)NC1CCN(Cc2ccccc2)CC1 | 580 | 44.1 ± 26 | 25.3 | 47 | 64.1
CCOC(=O)c1cnc2c(C)cc(C)cc2c1Nc1ccc(OC)c(OC)c1 | 6690 | 54.2 ± 2.2 | 14.7 | 32.9 | 45.1
CCOc1ccc(CCNC(=O)c2cccs2)cc1OCC | 691 | 72 ± 8.3 | 10.1 | 47 | 68.3
Cn1c(=O)n(C)c2cc(CNCCNc3ccnc4cc(Cl)ccc34)ccc21 | 64.8 | 25.7 ± 41 | 38.4 | 37.2 | 33.7
CCN(CC)CCNc1ncnc2c1[nH]c1ccc(Cl)cc12 | 230 | 23.3 ± 2.6 | 16.1 | 52 | 66.5
CCN(CC)CCCNc1ccnc2cc3ccccc3cc12 | 312 | 29.2 ± 27 | 19.5 | 41.2 | 42.7
C=C(C)CCC(C)N1CCC(N2CCC(C(=O)NCCc3ccccc3)CC2)CC1 (stereo not given) | 3960 | 20.9 ± 16 | < 0 | 1.71 | 48
COc1cc(OC)cc(N2C(=O)N(Cc3ccc(C(C)(C)C)cc3)c3ccccc3S2(=O)=O)c1 | 3500 | 57.3 ± 12 | 13.8 | 15.2 | 47.7
CCCCOc1ccc(C(=O)Nc2cc(C)on2)cc1 | 5760 | < 0 | 4.53 | 20.6 | 35.9
CCCc1c(CC)c(=N)c2ccccc2n1C | 6030 | 38.7 ± 9.2 | 7.3 | 8.61 | 31
O=C(c1ccccc1F)N(Cc1ccc(Cl)cc1)c1ccccn1 | 5700 | 82.2 ± 3.3 | 2.8 | 7.52 | 13.9
N=c1c2ccccc2nnn1-c1cccc(C(F)(F)F)c1 | 5760 | 64.1 ± 4.6 | 44.5 | 48.1 | 54.3
CCOC(=O)c1cnc2ccc(OC)cc2c1Nc1ccc(N2CCN(C)CC2)cc1 | 2980 | 24.9 ± 43 | 46.5 | 63.7 | 78.1
O=C(NCc1ccco1)C1CCN(S(=O)(=O)c2ccc(Br)cc2)CC1 | 397 | 52.8 ± 11 | 14.5 | 30.4 | 54.8
Cc1ccc(-c2cc3c(SCC(=O)Nc4cc(C(F)(F)F)ccc4Cl)nccn3n2)cc1 | 2140 | 48.6 ± 19 | 23.9 | 24.5 | 30.8
Cc1cc(Nc2ccc(Cl)cc2)n2nc(C(F)(F)F)nc2n1 | 56.2 | 62.7 ± 3.6 | 52.9 | 59.3 | 58.4
COc1cc2cc(C(=O)Nc3ccccc3)c(N)nc2cc1OC | 847 | 78.1 ± 1.2 | 8.51 | 35.6 | 57.9
CCOc1ccc2c(c1)CN(Cc1ccc(Cl)cc1)CO2 | 3960 | 24.6 ± 13 | < 0 | 11.2 | 31.5
FC(F)(F)c1cccc(CNC2CCN(CCc3ccccc3)CC2)c1 | 201 | 45.5 ± 8.4 | 23.2 | 60 | 69.5
Cc1ccc(Nc2nc(-c3ccccn3)cs2)cc1 | 3060 | 99.62 ± 0.17 | 24.9 | 40.7 | 28.2
CC1CN(C(=O)c2sc3ccccc3c2Cl)CC(C)O1 (stereo not given) | 29.1 | 74 ± 3.4 | 15.7 | 21.4 | 24.2
N#Cc1nc(Cc2cccc3ccccc23)oc1N1CCN(C(c2ccccc2)c2ccccc2)CC1 | 5260 | 44.8 ± 8.8 | 21.5 | 27.3 | 52.8

SMILES | EC50 growth inhibition [1] [nM] | % growth inhibition [2] [%] | % inhibition of schizont-to-ring transition ([3]; 1 µM) [%] | % inhibition of schizont-to-ring transition ([3]; 3 µM) [%] | % inhibition of schizont-to-ring transition ([3]; 10 µM) [%]
CCCN(CCC)CCCNC(=O)c1cc2c(-c3ccc(OC)c(OC)c3)nn(C)c2s1 | 1120 | 41.4 ± 13 | 14.9 | 37.6 | 68
Cc1ccc(OCCCCCCNCCO)c(C)c1 | 2870 | 76.2 ± 4.2 | 6.39 | 6.91 | 13.8
O=C(NC1CCN(Cc2ccccc2)CC1)c1cc(-c2ccncc2)nc2ccc(Cl)cc12 | 1920 | 54.7 ± 2.7 | 22.1 | 60.9 | 63.4
O=C(Nc1ccc(C23CC4CC(CC(c5ccccc5)(C4)C2)C3)cc1)c1cccs1 | 7300 | 76.8 ± 7.4 | 17.5 | 21.8 | 42.3
CN(N=O)C1=C(NC2CCCCC2)C(=O)c2ccccc2C1=O | 1520 | 57.2 ± 5.8 | 33.3 | 57.9 | 65.4
Cc1ccc(N2C(=O)C3C(C2=O)C2(c4ccccc4)C(=O)C3(c3ccccc3)C(c3ccccc3)=C2c2ccccc2)cc1 (stereo not given) | 4250 | 55.5 ± 9.4 | < 0 | < 0 | 24.4
Cc1ccc(C)c(Cn2c(N3CCC(C(=O)NCc4cccs4)CC3)nc3ccccc32)c1 | 6140 | 79.1 ± 1.9 | 18.6 | 69.7 | 68.4
CCOC(=O)c1cnc2c(C)cccc2c1Nc1ccc(C(C)=O)cc1 | 550 | 79.3 ± 2.5 | 28.3 | 45.9 | 51.5
COc1ccc(C(C)=O)cc1N1C(=O)C2C(C1=O)C1(c3ccccc3)C(=O)C2(c2ccccc2)C(c2ccc(C)cc2)=C1c1ccc(C)cc1 (stereo not given) | 273 | 79.2 ± 1.3 | 7.25 | 20.5 | 44.9
COc1ccc(CNC(=O)c2cc3c(=O)n4ccccc4nc3n(CCc3ccccc3)c2=N)cc1 | 2650 | 56.9 ± 14 | 9.38 | 17.6 | 47
O=C(CCc1ccccc1)c1ccccc1OCC(O)CN1CCCCC1 (stereo not given) | 912 | 66.1 ± 15 | 19 | 44.6 | 73.3
c1ccc(Cn2c(N=Nc3c(Nc4ccccc4)ccc4ccccc34)nc3ccccc32)cc1 | 3520 | 29.1 ± 12 | 14.6 | 25.9 | 52.2
O=c1cc(NC2CCN(CCCc3ccccc3)CC2)c2cc(Cl)ccc2o1 | 396 | 22 ± 19 | 61.1 | 66.7 | 68.9
CCOc1cc(Br)c(C(C)NC(=O)c2cccc(OC)c2)cc1OCC (stereo not given) | 427 | 34.7 ± 18 | 29.1 | 67.8 | 78
COc1cccc(C=Cc2nc(=O)c3ccccc3o2)c1OC | 317 | 70.48 ± 0.68 | 34.9 | 40.3 | 49.7
CC(C)(C)c1ccc(C2CC3=Nc4ccccc4N(C(=O)c4ccccc4Cl)C(c4ccc(F)cc4)C3=C(O)C2)cc1 (stereo not given) | 3410 | 68.4 ± 10 | < 0 | 5.12 | 41.6
CCCCN(CCCC)S(=O)(=O)c1ccc(NC(=O)c2ccco2)cc1 | 1530 | 74.8 ± 2.1 | 20 | 26.6 | 50.7
CCN(CC)CCNc1ccnc2cc3ccccc3cc12 | 192 | 32.4 ± 7.3 | 23.6 | 49 | 53.2
O=C(NNc1cc(N2CCCC2)nc(N2CCCC2)n1)c1ccccc1 | 6540 | 27.4 ± 0.88 | 16.2 | 24.6 | 62.1
OC1CCCCC1C1(NC(=S)Nc2ccccc2)CCCCC1 (stereo not given) | 1510 | 64 ± 2.9 | 23.3 | 45.7 | 53.4
CN1CCN(c2ncnc3c2[nH]c2ccc(Cl)cc23)CC1 | 894 | 28.6 ± 4.2 | 34 | 43.8 | 54.7
COc1ccc(C=C2SC(=N)N(c3ccccc3OC)C2=O)cc1 | 1370 | 58.7 ± 3.4 | 19.9 | 35.6 | 49.7
CCCCCC(=O)N1c2ccccc2N=C2CC(c3ccc(OC)c(OC)c3)CC(O)=C2C1c1ccc(C(F)(F)F)cc1 (stereo not given) | 205 | 60.4 ± 3 | 47.1 | 59.5 | 73.2
CC(C)(C)c1ccc2c(c1)CN(Cc1ccc(Cl)cc1)CO2 | 1120 | 34.1 ± 8.2 | 16.8 | 49.9 | 66.2
Nc1ccc(-c2nc3cc(Cc4ccc5[nH]c(-c6ccc(N)cc6)nc5c4)ccc3[nH]2)cc1 | 218 | 59.1 ± 11 | 51.3 | 70.1 | 76

SMILES | EC50 growth inhibition [1] [nM] | % growth inhibition [2] [%] | % inhibition of schizont-to-ring transition ([3]; 1 µM) [%] | % inhibition of schizont-to-ring transition ([3]; 3 µM) [%] | % inhibition of schizont-to-ring transition ([3]; 10 µM) [%]
CCOc1c(Cl)cc(CNCC(O)c2ccccc2)cc1OC (stereo not given) | 956 | 21.7 ± 8.2 | 11.2 | 15.1 | 50.5
Oc1ccc(C(=C(Cl)Cl)c2ccc(O)cc2)cc1 | 877 | 78.3 ± 3.7 | 11.4 | 53.3 | 73.2
COc1ccc(-c2cn3c(C(=O)Nc4ccccc4Cl)c(-c4ccccc4)c4c3n2CCCC4)cc1 | 7130 | 42.7 ± 28 | 12.5 | 30.4 | 62.3
COc1ccc(/C=C2/SC(=Nc3ccccc3)NC2=O)cc1 | 9090 | 22.4 ± 12 | 10.4 | 23 | 53
COc1cc2c3cc1Oc1c(OC)c(OC)cc4c1C(Cc1ccc(O)c(c1)Oc1ccc(cc1)CC3N(C)CC2)N(C)CC4 (stereo not given) | 1360 | 51.7 ± 6.6 | 0.0123 | 3.67 | 27.2
Oc1c2c(nc3cc(-c4ccccc4)nn13)CCCC2 | 3790 | 26.5 ± 12 | 0.423 | 6.47 | 21.9
COC(=O)c1ccc(C2C3=C(O)CC(c4ccc(F)cc4)CC3=Nc3ccccc3N2C(=O)c2ccccc2)cc1 (stereo not given) | 6360 | 61.3 ± 10 | 35.1 | 51.7 | 56
Cc1ccc2cc3c(N)c4c(C)ccc(C)c4nc3nc2c1 | 432 | 56.3 ± 6.5 | 29 | 72.1 | 79.8
COc1cccc(C(=O)Nc2ccc(-c3nc4ccccc4[nH]3)cc2)c1 | 1620 | 53.9 ± 1.5 | 3.81 | 12.6 | 34.9
Cc1cc(C)cc(Nc2cc(C)nc3nc(C(F)(F)F)nn23)c1 | 56.8 | 53.7 ± 4 | 46.6 | 56.5 | 59.8
O=C(Nc1cccc(-c2nc3ccccc3[nH]2)c1)c1cccc(NC(=O)c2ccco2)c1 | 6230 | 48.6 ± 19 | 28.5 | 37.6 | 52
Cc1nc2ccccc2c(O)c1CC=C(Cl)Cl | 4560 | 79.46 ± 0.64 | 10.8 | 31.3 | 67.4
C=CCc1c(C)nc2ccccc2c1O | 2260 | 72.7 ± 2.5 | 27.3 | 29.6 | 40.5
Oc1ccccc1CNCC12CC3CC(CC(C3)C1)C2 | 96.1 | 52.8 ± 12 | 64 | 64.7 | 67.1
CCCCOC(=O)c1ccc(Nc2cc(C)nc3ccc(OC)cc23)cc1 | 248 | 69 ± 12 | 29 | 59.5 | 65.9
CCC(c1ccccc1)c1nn2c(-c3cccs3)nnc2s1 (stereo not given) | 147 | 67.1 ± 4.9 | 48.6 | 60 | 65.8
CCOC(=O)c1cnc2ccc(CC)cc2c1O | 482 | 78.7 ± 3.3 | 49.9 | 61.3 | 62.8
CCOc1cc2c(cc1OCC)C(c1cc(Cl)ccc1O)NCC2 (stereo not given) | 1800 | 46.8 ± 4.8 | 3.63 | 17.7 | 64.1
CCCn1c(=N)c(C(=O)NC2CCCCC2)cc2c(=O)n3cccc(C)c3nc21 | 3810 | 71.06 ± 0.62 | 1.41 | 20.4 | 53.1
COC(=O)c1ccc(Cl)c2c1C1C=CCC1C(c1cccc3ccccc13)N2 (stereo not given) | 6220 | 55.6 ± 32 | 8.04 | 15 | 46.6
Cc1ccc(-c2cc3c(nn2)-c2ccccc2C3=O)cc1 | 214 | < 0 | 33.1 | 51.8 | 59.3
CC(=O)c1ccc(NC(=O)CSc2nc(-c3ccccc3Cl)ns2)cc1 | 412 | 78.8 ± 6.6 | 34 | 71.8 | 76.5
CC1CCCCN1CCCNC(=O)c1ccc2c(c1)sc1nc(-c3ccc(F)cc3)cn12 (stereo not given) | 400 | 48.7 ± 9.3 | 15.8 | 61.1 | 73.1
CCCc1c(C)nc2ccc(Br)cc2c1O | 4280 | 39.6 ± 25 | 17 | 24 | 44.8
CCOC(=O)c1c(C)n(-c2ccc(Cl)cc2)c2ccc(OC(=O)C=Cc3ccccc3)cc12 | 1020 | 69.3 ± 5 | 5 | 7.44 | 21.6
